{"source": "patent US9452980B2", "about": "“Substituted benzamides” (Hoffmann-La Roche Inc., priority 2009, dated 2016)", "key": {"[1]": {"biological_target": "mouse TAAR1 (Mus musculus (Mouse), UniProt Q923Y8)", "sequence (Q923Y8 whole entry)": "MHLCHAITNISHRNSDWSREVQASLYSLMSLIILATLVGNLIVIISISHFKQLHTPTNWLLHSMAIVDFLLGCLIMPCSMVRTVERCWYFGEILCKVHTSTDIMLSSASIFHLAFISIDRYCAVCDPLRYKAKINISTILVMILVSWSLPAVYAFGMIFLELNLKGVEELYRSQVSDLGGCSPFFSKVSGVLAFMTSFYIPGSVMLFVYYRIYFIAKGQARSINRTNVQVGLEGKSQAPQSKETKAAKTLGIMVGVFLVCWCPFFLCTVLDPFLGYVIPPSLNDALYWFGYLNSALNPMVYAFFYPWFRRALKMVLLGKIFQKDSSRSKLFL", "assay": "Radioligand binding assay on mouse TAAR1", "conditions": "read-out: Ki (μM) mouse", "how_it_was_run": "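Displacement of the tritiated oxazol-2-ylamine radioligand was measured by filtration and scintillation counting after 1 h incubation at 4 °C. Test concentrations ran 10 pM–10 μM in duplicate, with 10 μM cold ligand giving nonspecific binding. The receptor source was membranes of a stable mouse TAAR1 HEK293 line.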"}, "[2]": {"biological_target": "rat TAAR1 (Rattus norvegicus (Rat), UniProt Q923Y9)", "sequence (Q923Y9 whole entry)": "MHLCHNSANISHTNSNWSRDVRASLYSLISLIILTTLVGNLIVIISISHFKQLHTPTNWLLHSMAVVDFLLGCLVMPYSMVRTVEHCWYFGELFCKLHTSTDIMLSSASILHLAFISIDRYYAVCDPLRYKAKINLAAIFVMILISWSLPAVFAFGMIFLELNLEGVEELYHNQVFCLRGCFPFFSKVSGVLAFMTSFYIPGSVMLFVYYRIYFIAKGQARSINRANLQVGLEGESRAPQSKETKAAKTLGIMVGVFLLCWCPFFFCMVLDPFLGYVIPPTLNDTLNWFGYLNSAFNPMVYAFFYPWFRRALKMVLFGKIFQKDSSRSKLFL", "assay": "Radioligand binding assay on rat TAAR1", "conditions": "read-out: Ki (μM) rat", "how_it_was_run": "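Membranes from HEK293 cells stably expressing rat TAAR1, with Kd checked per batch by saturation. Competition with ³H-(S)-4-[(ethyl-phenyl-amino)-methyl]-4,5-dihydro-oxazol-2-ylamine, compounds 10 pM–10 μM in duplicate, 1 hr at 4 °C. Filtration then scintillation counting; nonspecific binding defined with 10 μM unlabeled ligand.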"}, "[3]": {"conditions": "mouse TAAR1, HEK-293 membranes, first value of cell mouse/rat"}, "[4]": {"conditions": "rat TAAR1, HEK-293 membranes, second value of cell mouse/rat"}}, "note": "Counter-ions that a name gives are not always drawn. Like-named read-outs stand apart in the source and are kept apart here.", "data": [{"smiles": "CCc1ccc(C(=O)Nc2ccc([C@@H]3CCCNC3)cc2)cn1", "note": "[Example 297, (S)-6-Ethyl-N-(4-(piperidin-3-yl)phenyl)nicotinamide]", "values": [{"measurement": "Ki", "setting": "[1]; [3]", "value": 0.018, "unit": "µM"}, {"measurement": "Ki", "setting": "[2]; [4]", "value": 0.0044, "unit": "µM"}]}, {"smiles": "O=C(Nc1ccc([C@H]2CNCCO2)cc1)c1ccc(Cl)cc1I", "note": "[Example 301, (S)-4-Chloro-2-iodo-N-(4-(morpholin-2-yl)phenyl)benzamide]", "values": [{"measurement": "Ki", "setting": "[1]; [3]", "value": 0.0509, "unit": "µM"}, {"measurement": "Ki", "setting": "[2]; [4]", "value": 0.007, "unit": "µM"}]}, {"smiles": "O=C(Nc1ccc([C@H]2CNCCCO2)cc1)c1cccc(Cl)c1", "note": "[Example 308, (S)—N-(4-(1,4-Oxazepan-2-yl)phenyl)-3-chlorobenzamide hydrochloride]", "values": [{"measurement": "Ki", "setting": "[1]; [3]", "value": 0.287, "unit": "µM"}, {"measurement": "Ki", "setting": "[2]; [4]", "value": 0.0018, "unit": "µM"}]}, {"smiles": "C[C@H]1CNC[C@H](c2ccc(NC(=O)c3cccc(Cl)c3)cc2)O1", "note": "[Example 309, 3-Chloro-N-(4-((2S,6S)-6-methylmorpholin-2-yl)phenyl)benzamide hydrochloride]", "values": [{"measurement": "Ki", "setting": "[1]", "value": 0.116, "unit": "µM"}, {"measurement": "Ki", "setting": "[2]; [4]", "value": 0.0023, "unit": "µM"}]}, {"smiles": "C[C@@H]1CNC[C@H](c2ccc(NC(=O)c3ccc(Cl)nc3)cc2)O1", "note": "[Example 310, 6-Chloro-N-(4-((2S,6R)-6-methylmorpholin-2-yl)phenyl)nicotinamide hydrochloride]", "values": [{"measurement": "Ki", "setting": "[1]", "value": 0.0476, "unit": "µM"}, {"measurement": "Ki", "setting": "[2]; [4]", "value": 0.0108, "unit": "µM"}]}, {"smiles": "O=C(Nc1ccc([C@@H]2CNCCO2)cc1)Nc1ccc(C(F)(F)F)cc1", "note": "[Example 311, (R)-1-(4-(Morpholin-2-yl)phenyl)-3-(4-(trifluoromethyl)phenyl)urea hydrochloride]", "values": [{"measurement": "Ki", "setting": "[1]; [3]", "value": 0.0005, "unit": "µM"}, {"measurement": "Ki", "setting": "[2]", "value": 0.0014, "unit": "µM"}]}, {"smiles": "O=C(Nc1ccc([C@H]2CNCCO2)cc1)Nc1ccc(C(F)(F)F)cc1", "note": "[Example 312, (S)-1-(4-(Morpholin-2-yl)phenyl)-3-(4-(trifluoromethyl)phenyl)urea hydrochloride]", "values": [{"measurement": "Ki", "setting": "[1]; [3]", "value": 0.0007, "unit": "µM"}, {"measurement": "Ki", "setting": "[2]", "value": 0.0011, "unit": "µM"}]}, {"smiles": "O=C(NCc1ccc([C@@H]2CNCCO2)cc1)c1cccc(Cl)c1", "note": "[Example 313, (R)-3-Chloro-N-(4-(morpholin-2-yl)benzyl)benzamide hydrochloride]", "values": [{"measurement": "Ki", "setting": "[1]; [3]", "value": 0.547, "unit": "µM"}, {"measurement": "Ki", "setting": "[2]; [4]", "value": 0.0154, "unit": "µM"}]}, {"smiles": "O=C(NCc1ccc([C@@H]2CNCCO2)cc1)c1ccc(Cl)cc1", "note": "[Example 314, (R)-4-Chloro-N-(4-(morpholin-2-yl)benzyl)benzamide hydrochloride]", "values": [{"measurement": "Ki", "setting": "[1]; [3]", "value": 1.89, "unit": "µM"}, {"measurement": "Ki", "setting": "[2]; [4]", "value": 0.0062, "unit": "µM"}]}, {"smiles": "O=C(NCc1ccc([C@@H]2CNCCO2)cc1)c1ccc(Cl)nc1", "note": "[Example 315, (R)-6-Chloro-N-(4-(morpholin-2-yl)benzyl)nicotinamide hydrochloride]", "values": [{"measurement": "Ki", "setting": "[1]; [3]", "value": 1.35, "unit": "µM"}, {"measurement": "Ki", "setting": "[2]; [4]", "value": 0.009, "unit": "µM"}]}, {"smiles": "O=C(NCc1ccc([C@@H]2CNCCO2)cc1)c1ccc(OCC(F)(F)F)nc1", "note": "[Example 316, (R)—N-(4-(Morpholin-2-yl)benzyl)-6-(2,2,2-trifluoroethoxy)nicotinamide hydrochloride]", "values": [{"measurement": "Ki", "setting": "[1]; [3]", "value": 0.273, "unit": "µM"}, {"measurement": "Ki", "setting": "[2]; [4]", "value": 0.0121, "unit": "µM"}]}, {"smiles": "O=C(NCc1ccc([C@H]2CNCCO2)cc1)c1cccc(Cl)c1", "note": "[Example 318, (S)-3-Chloro-N-(4-(morpholin-2-yl)benzyl)benzamide hydrochloride]", "values": [{"measurement": "Ki", "setting": "[1]; [3]", "value": 12900, "unit": "µM"}, {"measurement": "Ki", "setting": "[2]; [4]", "value": 0.0312, "unit": "µM"}]}, {"smiles": "O=C(NCc1ccc([C@@H]2CNCCO2)cc1)c1ccc(C(F)(F)F)nc1", "note": "[Example 321, (R)—N-(4-(Morpholin-2-yl)benzyl)-6-(trifluoromethyl)nicotinamide hydrochloride]", "values": [{"measurement": "Ki", "setting": "[1]", "value": 1.31, "unit": "µM"}, {"measurement": "Ki", "setting": "[2]", "value": 0.026, "unit": "µM"}]}, {"smiles": "C[C@H]1CO[C@@H](c2ccc(NC(=O)c3cccc(Cl)c3)cc2)CN1", "note": "[Example 322, 3-Chloro-N-[4-((2S,5S)-5-methyl-morpholin-2-yl)-phenyl]-benzamide hydrochloride]", "values": [{"measurement": "Ki", "setting": "[1]", "value": 0.0188, "unit": "µM"}, {"measurement": "Ki", "setting": "[2]", "value": 0.0017, "unit": "µM"}]}, {"smiles": "C[C@@H]1CO[C@@H](c2ccc(NC(=O)c3cccc(Cl)c3)cc2)CN1", "note": "[Example 323, 3-Chloro-N-[4-((2S,5R)-5-methyl-morpholin-2-yl)-phenyl]-benzamide hydrochloride]", "values": [{"measurement": "Ki", "setting": "[1]", "value": 0.0592, "unit": "µM"}, {"measurement": "Ki", "setting": "[2]", "value": 0.0013, "unit": "µM"}]}]}
